Assay results from US7091345B2, “Amino-substituted dihydropyrimido[4,5-D]pyrimidinone derivatives” (Hoffmann-La Roche Inc., priority 2002, dated 2006).
Structures can show the parent of a compound that is named as a salt.

Columns and labels:
Src (p60^c-src) = target: T1, Src (p60^c-src) (Homo sapiens, UniProt P12931); assay: SRC-Inhibitor-Assay, time-resolved fluorescence kinase assay (Src); assay type: biochemical; conditions: ATP 5 μM; enzyme 2.5 U/ml; pre-incubation 15 min at 15° C.; read-out: IC 50 (src)
T1 construct: purchased Upstate (UBI)
T1 sequence (P12931 whole entry): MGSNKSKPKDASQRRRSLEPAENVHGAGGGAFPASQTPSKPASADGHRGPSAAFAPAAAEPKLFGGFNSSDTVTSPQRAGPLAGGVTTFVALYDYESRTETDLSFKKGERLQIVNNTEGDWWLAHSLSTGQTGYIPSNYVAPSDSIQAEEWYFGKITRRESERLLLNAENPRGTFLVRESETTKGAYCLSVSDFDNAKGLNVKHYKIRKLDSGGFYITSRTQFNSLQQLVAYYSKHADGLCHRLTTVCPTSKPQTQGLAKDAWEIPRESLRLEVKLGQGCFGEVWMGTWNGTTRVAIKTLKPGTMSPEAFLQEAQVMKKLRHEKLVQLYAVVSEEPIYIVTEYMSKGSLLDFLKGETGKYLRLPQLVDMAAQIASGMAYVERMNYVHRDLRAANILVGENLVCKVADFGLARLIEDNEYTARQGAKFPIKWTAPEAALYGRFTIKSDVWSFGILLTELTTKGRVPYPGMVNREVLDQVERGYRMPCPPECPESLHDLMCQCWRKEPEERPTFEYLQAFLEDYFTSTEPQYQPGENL
Method: (§1) The activity of the compounds according to this invention as inhibitors for the src-family tyrosine kinases was shown by using the following assay.
(§2) SRC-Inhibitor-Assay Parameters:
(§3) Assay buffer: 4 mM MgCl2 • 2 mM TCEP • 50 mM HEPES • 0,1% Tween 20 • pH 7.3
(§4) Material: Eu-labelled phosphotyrosine antibody:—for Lck Cisbio Mab PT66-K, for Src EG&G Wallac PT66 Eu-W1024 (all commercially available). Peptides: Ro: NH2-A-E-E-E-I-Y-G-E-F-E-A-K-K-K-K-CONH2, and Ja133-Ro: Ja133-G-Aminocaprylic acid-A-E-E-E-I-Y-G-E-F-E-A-K-K-K-K-CONH2, wherein Ja133 is LightCycler-Red 640-N-hydroxy succinimide ester; whereby both peptides were synthesized by an optimized solid phase peptide synthesis protocol (Merrifield, Fed. Proc. Fed. Amer. Soc. Exp. Biol. 21 (1962) 412) on a Zinsser SMP350 peptide synthesizer. Shortly, the peptide was assembled on 160 mg (22.8 μmol scale) of a Rink-Linker modified polystyrene solid phase by repeatedly conjugating an twenty fold excess of amino acids each protected by temporary piperidine labile Fmoc- and permanent acid labile tert-Bu-, BOC— and Otert-Bu-groups depending on the side chain function. The substrate sequence AEEEIYGEFEAKKKK was N-terminal additionally mounted with the spacer amino acids Aminocaprylic acid and Glycin. After cleavage of the N-terminal temporary protecting group the still attached and protected peptide was labeled with a 1.5 fold amount of LightCycler-Red 640-N-hydroxy succinimide ester (purchased by Roche Diagnostics GmbH) and triethylamine. After 3 hrs. the resin was washed with Dimethylformamide and Isopropanol until the eluates of the blue resin got colourless. […] The substrate was finally isolated by a preparative reverse phase HPLC purification. The purification yielded 12.2 mg RP-HPLC single peak pure blue material (lyophilisate). The identity was proven by MALDI mass spectroscopy [2720.0]. Enzymes: Upstate Lck (p56^lck, active), Upstate Src (p60^c-src, partially purified) were purchased from UBI. Time-resolved Fluorescence Assay: Reader: Perkin Elmer, Wallac Viktor 1420-040 multilabel counter; Liquid handling system: Beckman Coulter, Biomek 2000. ATP, Tween 20, HEPES were purchased from Roche Molecular Biochemicals, MgCl2 and MnCl2 were purchased from Merck Eurolab, TCEP was purchased from Pierce, 384 Well low volume fluorescence plates was purchased from Falcon. Assay Description:
(§5) At first the enzyme is pre-incubated for 15 min. at 15° C. in aqueous solution with corresponding amounts of inhibitors according to this invention. Then the phosphorylation reaction is started by adding a reaction mixture, containing ATP, Peptide and PT66, and subsequent shaking. The proceeding of this reaction is immediately monitored using time resolved fluorescence spectroscopy in a suitable well plate reader.
(§6) The IC50-values can be obtained from the reaction rates by using a non-linear curve fit (Excelfit).

Lck (p56^lck) = target: T2, Lck (p56^lck) (Homo sapiens, UniProt P06239); assay: SRC-Inhibitor-Assay, time-resolved fluorescence kinase assay (Lck); assay type: biochemical; conditions: ATP 5 μM; enzyme 2.5 U/ml; pre-incubation 15 min at 15° C.; read-out: IC 50 (lck)
T2 construct: purchased Upstate (UBI)
T2 sequence (P06239 whole entry, species assumed): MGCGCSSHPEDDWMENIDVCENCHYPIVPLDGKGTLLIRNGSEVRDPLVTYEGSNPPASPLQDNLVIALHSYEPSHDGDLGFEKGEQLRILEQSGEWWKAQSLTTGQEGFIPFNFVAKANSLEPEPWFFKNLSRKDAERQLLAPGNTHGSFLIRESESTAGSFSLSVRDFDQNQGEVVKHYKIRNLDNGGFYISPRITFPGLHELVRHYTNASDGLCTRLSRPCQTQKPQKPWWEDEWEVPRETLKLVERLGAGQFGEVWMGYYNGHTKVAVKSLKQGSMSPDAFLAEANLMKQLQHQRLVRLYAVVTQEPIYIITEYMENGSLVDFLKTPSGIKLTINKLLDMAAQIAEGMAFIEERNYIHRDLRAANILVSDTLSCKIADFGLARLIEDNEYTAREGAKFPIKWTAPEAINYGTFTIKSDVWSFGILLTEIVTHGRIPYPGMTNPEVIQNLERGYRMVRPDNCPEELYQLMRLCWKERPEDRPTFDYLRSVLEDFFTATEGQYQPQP
Method: as §1, §2, §3, §4, §5, §6

Row | SMILES | IC50 (Src (p60^c-src)) | IC50 (Lck (p56^lck))
1 | CC1c2cnc(Nc3ccc4c(c3)S(=O)(=O)CCO4)nc2N(C)C(=O)N1c1ccccc1Br (single isomer, unassigned; enantiomer 1) [Example 8a, 3-(2-Bromo-phenyl)-7-(4,4-dioxo-3,4-dihydro-2H-4λ^6-benzo[1,4]oxathiin-6-ylamino)-1,4-dimethyl-3,4-dihydro-1H-pyrimido[4,5-d]pyrimidin-2-one; enantiomer 1] | 0.4 nM | 8.1 nM
2 | CC1c2cnc(Nc3ccc4c(c3)S(=O)(=O)CC(=O)N4C)nc2N(C)C(=O)N1c1ccccc1Br (single isomer, unassigned; enantiomer 1) [Example 13-52, 3-(2-Bromo-phenyl)-1,4-dimethyl-7-(4-methyl-1,1,3-trioxo-1,2,3,4-tetrahydro-1λ^6-benzo[1,4]thiazin-7-ylamino)-3,4-dihydro-1H-pyrimido[4,5-d]pyrimidin-2-one; enantiomer 1] | 0.019 nM | 0.0246 nM
3 | CC1c2cnc(Nc3ccc4c(c3)S(=O)(=O)CCO4)nc2N(C)C(=O)N1c1ccccc1Br (single isomer, unassigned; enantiomer 2) [Example 13-50, 3-(2-Bromo-phenyl)-7-(4,4-dioxo-3,4-dihydro-2H-4λ^6-benzo[1,4]oxathiin-6-ylamino)-1,4-dimethyl-3,4-dihydro-1H-pyrimido[4,5-d]pyrimidin-2-one; enantiomer 2] | 2970 nM | 1340 nM
4 | CC1c2cnc(Nc3ccc4c(c3)S(=O)(=O)CC(=O)N4C)nc2N(C)C(=O)N1c1ccccc1Br (single isomer, unassigned; enantiomer 2) [Example 13-51, 3-(2-Bromo-phenyl)-1,4-dimethyl-7-(4-methyl-1,1,3-trioxo-1,2,3,4-tetrahydro-1λ^6-benzo[1,4]thiazin-7-ylamino)-3,4-dihydro-1H-pyrimido[4,5-d]pyrimidin-2-one; enantiomer 2] | 2520 nM | 1280 nM
5 | CN1C(=O)N(c2c(F)cccc2Br)Cc2cnc(Nc3ccc4c(c3)S(=O)(=O)CCO4)nc21 [Example 8, 3-(2-bromo-6-fluoro-phenyl)-7-(4,4-dioxo-3,4-dihydro-2H-4λ^6-benzo[1,4]oxathiin-6-ylamino)-1-methyl-3,4-dihydro-1H-pyrimido[4,5-d]pyrimidin-2-one] | 1.8 nM | 4.7 nM
6 | CN1CCS(=O)(=O)c2cc(Nc3ncc4c(n3)N(C)C(=O)N(c3c(F)cccc3Br)C4)ccc21 [Example 11, 3-(2-bromo-6-fluoro-phenyl)-1-methyl-7-(4-methyl-1,1-dioxo-1,2,3,4-tetrahydro-1lambda*6*-benzo[1,4]thiazin-7-ylamino)-3,4-dihydro-1H-pyrimido[4,5-d]pyrimidin-2-one] | 0.8 nM | 4.3 nM
7 | CN1Cc2ccc(Nc3ncc4c(n3)N(C)C(=O)N(c3ccccc3Br)C4)cc2C1 [Example 13-3, 3-(2-bromo-phenyl)-1-methyl-7-(2-methyl-2,3-dihydro-1H-isoindol-5-ylamino)-3,4-dihydro-1H-pyrimido[4,5-d]pyrimidin-2-one; hydrochloride salt] | 1.5 nM | 4.2 nM
8 | CN1C(=O)N(c2ccccc2Br)Cc2cnc(Nc3ccc4c(c3)S(=O)(=O)CO4)nc21 [Example 13-4, 3-(2-bromo-phenyl)-7-(3,3-dioxo-2,3-dihydro-3lambda*6*-benzo[1,3]oxathiol-5-ylamino)-1-methyl-3,4-dihydro-1H-pyrimido[4,5-d]pyrimidin-2-one] | 17 nM | 29.4 nM
9 | CN1C(=O)N(c2ccccc2Br)Cc2cnc(Nc3ccc4c(c3)OCO4)nc21 [Example 13-8, 7-(benzo[1,3]dioxol-5-ylamino)-3-(2-bromo-phenyl)-1-methyl-3,4-dihydro-1H-pyrimido[4,5-d]pyrimidin-2-one] | 17 nM | 20 nM
10 | CN1C(=O)c2ccc(Nc3ncc4c(n3)N(C)C(=O)N(c3c(F)cccc3Br)C4)cc2C1=O [Example 13-16, 5-[6-(2-bromo-6-fluoro-phenyl)-8-methyl-7-oxo-5,6,7,8-tetrahydro-pyrimido[4,5-d]pyrimidin-2-ylamino]-2-methyl-isoindole-1,3-dione] | 11 nM | 21 nM
